Assay results taken from ChEMBL document CHEMBL1201862, “PubChem BioAssay data set” (2004).
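Method: 48-hour compound exposure of cells in 96-well plates, five concentrations, linear interpolation of endpoints. At the GI50, growth is halved.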 Calls of active or inactive are those of the source. No stated cut-off is given here; in the data, active = GI50 up to about 1.1 µM and inactive = higher.

Assays:
Test in all cases: DTP human tumour cell line panel, 48 h
PC-3 = test system: PC-3
UACC-257 = test system: UACC-257
KM12 = test system: KM12
EKVX = test system: EKVX
SN12C = test system: SN12C
SF-268 = test system: SF-268
HCT-116 = test system: HCT-116
M14 = test system: M14
HL-60 = test system: HL-60
NCI/ADR-RES = test system: NCI/ADR-RES
SF-295 = test system: SF-295
SR = test system: SR
MOLT-4 = test system: MOLT-4
MDA-MB-435 = test system: MDA-MB-435
COLO 205 = test system: COLO 205
DU-145 = test system: DU-145
786-0 = test system: 786-0
OVCAR-8 = test system: OVCAR-8
SK-MEL-28 = test system: SK-MEL-28
NCI-H460 = test system: NCI-H460

SMILES | GI50 (PC-3) | GI50 (UACC-257) | GI50 (KM12) | GI50 (EKVX) | GI50 (SN12C) | GI50 (SF-268) | GI50 (HCT-116) | GI50 (M14) | GI50 (HL-60) | GI50 (NCI/ADR-RES) | GI50 (SF-295) | GI50 (SR) | GI50 (MOLT-4) | GI50 (MDA-MB-435) | GI50 (COLO 205) | GI50 (DU-145) | GI50 (786-0) | GI50 (OVCAR-8) | GI50 (SK-MEL-28) | GI50 (NCI-H460)
C=C(Cl)C(Cl)(CBr)CCC(Br)C(C)(C)Br (centres undefined) | 2.31 µM (inactive) | 1.8 µM (inactive) | 1.38 µM (inactive) | 8.45 µM (inactive) | 7.28 µM (inactive) | 3.22 µM (inactive) | 1.74 µM (inactive) | 16.3 µM (inactive) | 2.19 µM (inactive) | 5.66 µM (inactive) | 2 µM (inactive) | 13.4 µM (inactive) | 6.9 µM (inactive) | 9.44 µM (inactive) | 2.75 µM (inactive) | 3.97 µM (inactive) | 1.14 µM (inactive) | 4.3 µM (inactive) | 2.95 µM (inactive) | 1.72 µM (inactive)
CC(C)=CCC\C(C)=C/C=C/C(C)=C\C=C\C(C)=C/C=C/C=C(C)\C=C\C=C(C)/C=C/C=C(/C)CCC=C(C)C | > 100 µM (inactive) | > 100 µM (inactive) | > 100 µM (inactive) | > 100 µM (inactive) | > 100 µM (inactive) | > 100 µM (inactive) | > 100 µM (inactive) | > 100 µM (inactive) | > 100 µM (inactive) | > 100 µM (inactive) | > 100 µM (inactive) | > 100 µM (inactive) | > 100 µM (inactive) | > 100 µM (inactive) | > 100 µM (inactive) | > 100 µM (inactive) | > 100 µM (inactive) | > 100 µM (inactive) | > 100 µM (inactive) | –
N#Cc1c(Cl)c2cccnc2n2c1nc1ccccc12 | 2.41 µM (inactive) | 2.69 µM (inactive) | 6.41 µM (inactive) | 4.22 µM (inactive) | 2.04 µM (inactive) | 2.66 µM (inactive) | 1.7 µM (inactive) | 3.15 µM (inactive) | 0.507 µM (active) | 2.69 µM (inactive) | 19 µM (inactive) | 1.08 µM (active) | 2.04 µM (inactive) | 4.3 µM (inactive) | 1.99 µM (inactive) | 1.98 µM (inactive) | 1.77 µM (inactive) | 1.96 µM (inactive) | 3.64 µM (inactive) | 7.01 µM (inactive)
ClCCN1CCOC1=C1C=CC=C1 | > 100 µM (inactive) | > 100 µM (inactive) | 18.4 µM (inactive) | > 100 µM (inactive) | > 100 µM (inactive) | > 100 µM (inactive) | > 100 µM (inactive) | > 100 µM (inactive) | 96.6 µM (inactive) | > 100 µM (inactive) | > 100 µM (inactive) | 19.3 µM (inactive) | 55.8 µM (inactive) | > 100 µM (inactive) | > 100 µM (inactive) | > 100 µM (inactive) | > 100 µM (inactive) | > 100 µM (inactive) | > 100 µM (inactive) | > 100 µM (inactive)
